Common to all, as to assay type: cell-based
The test system of test [1] is SRS-A evoked ileal contractions. Description: Antagonism of crude SRS-A-evoked contraction of isolated guinea pig ileum (single concentration). The settings on record: Cavia porcellus, 5 min, 5 minute exposure, pyrilamine 1×10^-6 M, read-out: Percent Inhibition of SRS-A evoked ileal contractions; for inhibition at 3 µM: 3 × 10^-6 M. The protocol: (§1) Male, Hartley guinea pigs weighing 200-450 grams were killed by decapitation. A section of terminal ileum was removed, the lumen cleaned, and the tissue divided into 2.5 cm. segments. The ilea were mounted in 10 ml. tissue baths containing Krebs-bicarbonate solution of the following composition in mmoles/liter: KCl, 4.6; CaCl2.2H2 O, 1.2; KH2 PO4, 1.2; MgSO4.7H2 O, 1.2; NaCl, 118.2; NaHCO3, 24.8 and dextrose, 10.0. The bath fluid was maintained at 37° C. and aerated with 95 percent oxygen and 5 percent CO2. In addition, the buffer contained 1×10^-6 M atropine to reduce ileal spontaneous activity. In studies with crude SRS-A, 1×10^-6M pyrilamine was used to mitigate the actions of histamine present along with the biologically active leukotrienes. Isometric measurements were made with a Grass FTO3C force-displacement transducer and recorded on a Grass polygraph as change in grams of force. A passive force of 0.5 g. was applied to the tissues. After an appropriate equilibration period, single submaximal control responses to either SRS-A or pure LTD4 were obtained. Following a 5 minute exposure of the ileum to an experimental drug, the control concentration of SRS-A or LTD4 was added to the tissue bath. The response of the ileum to SRS-A or LTD4 in the presence of the drug was compared to the response in the absence of the drug.
(§2) *Compounds marked with an asterisk were tested using crude SRSA as the
(§3) ileumcontracting agent; all other compounds were tested using pure

For test [2], the target named is T1, LTD4 evoked ileal contractions (Cavia porcellus, UniProt Q2NNR5).
T1 construct: A section of terminal ileum was removed, the lumen cleaned, and the tissue divided into 2.5 cm. segments; from tissue; host or cells: terminal ileum of male Hartley guinea pigs
T1 sequence (Q2NNR5 1-340): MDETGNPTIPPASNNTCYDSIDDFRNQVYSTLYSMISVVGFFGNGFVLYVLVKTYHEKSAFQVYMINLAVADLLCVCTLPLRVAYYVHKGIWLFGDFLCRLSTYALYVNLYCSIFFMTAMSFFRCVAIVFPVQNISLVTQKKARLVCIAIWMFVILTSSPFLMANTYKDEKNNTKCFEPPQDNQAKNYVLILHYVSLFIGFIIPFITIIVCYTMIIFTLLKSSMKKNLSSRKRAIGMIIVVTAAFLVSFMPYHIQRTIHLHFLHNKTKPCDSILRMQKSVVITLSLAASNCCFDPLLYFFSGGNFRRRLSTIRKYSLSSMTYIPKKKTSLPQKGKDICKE
Description: LTD4 antagonism, cumulative concentration-response curves in guinea pig ileum and trachea (pA2). To be noted: 30 minute incubation with antagonist, Furchgott method. The protocol:
For some of the drugs in this series a more detailed analysis of LTD4 antagonism was made. In these experiments, cumulative concentration-response curves were obtained to LTD4 in guinea pig ileum and trachea. This was followed by a 30 minute incubation with various concentrations of the experimental drug. The concentration response curve to LTD4 was then repeated in the presence of the antagonist. Only one concentration of antagonist was used on a single tissue. KB values were calculated by the method of Furchgott [Ann. N.Y. Acad. Sci., 139, 553 (1967)]using the following equation. [formula] Dose ratio refers to the concentration of agonist required to elicit 50 percent of the maximal response (ED50) in the presence of the antagonist divided by the ED50 in the absence of the antagonist. Calculations were performed with the aid of a computer and a digital plotter.

Test [3] addresses T1, LTD4 evoked ileal contractions. Description: Antagonism of LTD4-evoked contraction of isolated guinea pig ileum (single concentration). The settings on record: pure LTD4, 5 minute exposure, read-out: Percent Inhibition of LTD4 evoked ileal contractions; for inhibition at 1 µM: 1 × 10^-6 M; for inhibition at 10 µM: 1 × 10^-5 M. The protocol:
as §1, §2, §3

As usually defined, the inhibition is the drop in the measured response relative to a control, in per cent. What is called Kb is the equilibrium dissociation constant of an antagonist, usually derived from a functional assay. A low value points to higher antagonist affinity.

On to `CCCc1c(OC(CCCCC(=O)O)c2ccc(-c3ccccc3)cc2)ccc(C(C)=O)c1O` (stereo not drawn) [Example 17, 6-(4-Acetyl-3-hydroxy-2-propylphenoxy)-6-(4-biphenyl)hexanoic acid], for which, in test [1] (1 × 10^-5 M), the inhibition at 10 µM came to 44%.

With `CC(=O)c1ccc(OC(CCCCC(=O)O)c2ccccc2)cc1O` (stereo not drawn) [Example 20, 6-(4-Acetyl-3-hydroxyphenoxy)-6-phenyl-hexanoic acid], in test [1], the inhibition at 3 µM was 20%.

On to `CC(=O)c1ccc(OCCCCCC(=O)O)cc1O` [Example 25, 6-(4-Acetyl-3-hydroxyphenoxy)hexanoic acid], for which the inhibition at 3 µM in test [1] was determined as 11%.

In the case of `CCCc1c(OCCCCC(=O)O)ccc(C(C)=O)c1O` [Example 28, 5-(4-Acetyl-3-hydroxy-2-propylphenoxy)pentanoic acid], in test [1], the inhibition at 3 µM was found to be 61%. In addition, in test [2], the Kb is 1580 nM.

With `CCCc1c(OCCSc2nn[nH]n2)ccc(C(C)=O)c1O` [Example 58, 5-[2-(4-Acetyl-3-hydroxy-2-propylphenoxy)ethanethio]-tetrazole], the inhibition at 1 µM in test [3] worked out at 47%. Also, in test [2], the Kb was 1120 nM.

As for `CCCc1c(OCCCSc2nn[nH]n2)ccc(C(C)=O)c1O` [Example 59, 5-[3-(4-Acetyl-3-hydroxy-2-propylphenoxy)propanethio]-tetrazole], the inhibition at 1 µM in test [3] came to 95%. The compound further showed a Kb in test [2] of 31.6 nM.

With `CCCc1c(OCCCCCSc2nn[nH]n2)ccc(C(C)=O)c1O` [Example 68, 5-[5-(4-Acetyl-3-hydroxy-2-propylphenoxy)pentanethio]-tetrazole], in test [3], the inhibition at 10 µM was 100% and the inhibition at 1 µM was 82%. This compound also had a Kb in test [2] of 158 nM.

In the case of `CCCc1c(OCCCCCCCCSc2nn[nH]n2)ccc(C(C)=O)c1O` [Example 73, 5-[8-(4-Acetyl-3-hydroxy-2-propylphenoxy)octanethio]-tetrazole], in test [3], the inhibition at 10 µM was 100% and the inhibition at 1 µM worked out at 50%. Moreover, the Kb in test [2] is 501 nM.

For the origin of these results see patent US4661505A, “Leukotriene antagonists” (Eli Lilly and Company, priority 1982, dated 1987).
